For experiment [1], the system named is rat. As to the kind of experiment: rat T-maze reinforced alternation task. It counts as in vivo. The settings on record: twice daily 0.25 mg/kg. Here is the method: (§1) A test carried out using the mouse light/dark box and the rat T-maze reinforced alternation task.
The X axis is the day and the Y axis is the percent correct responses.
The number of mice tested was six.
⬭ - - - ⬭ is the control vehicle.
⬬ - - - ⬬ is scopolamine at 0.25 mg/kg IP BID.

Experiment [2] relates to mice. Nature of the experiment: mouse light/dark box habituation test. It counts as in vivo. The note with it: 0.25 mg/kg. Here is the method: as §1
On repeated exposure to the light/dark box mice habituate by moving more rapidly from the light to the dark side. The habituation occurs over a 4 to 6 day period, with a reduction in latency of movement from about 14 sec to 2 to 4 sec by the 4th day of the test.
The compounds was administered at a dose of 0.00001 mg/kg SC once daily.
The days (1-6) are along the X axis and the time in seconds is along the Y axis (latency white to black) and Day 6 scopolamine was 0.25.
∘ p <0.001 indicates improved habituation, comparison is with 1 day.
* p <0.05 to p <0.001 is improved performance, compared to control.
+ p <0.001 is scopolamine impairment.
Δ p <0.001 is inhibition of scopolamine impairment.

As for `CN1[C@@H]2C[C@@H](OC(=O)[C@H](CO)c3ccccc3)C[C@H]1[C@@H]1O[C@@H]12` [scopolamine], in experiment [1], the “effect of scopolamine on task performance” value was “deficit”. Moreover, the “effect of scopolamine on habituation performance” value in experiment [2] is given as “impairment of performance”.

The values above are taken from patent US6492531B1, “Method of treating cognitive disorders” (Warner-Lambert Company, priority 1992, dated 2002).
